Data taken from ChEMBL document CHEMBL5214984, “Identification of Organic Anion Transporter 2 Inhibitors: Screening, Structure-Based Analysis, and Clinical Drug Interaction Risk Assessment” (J Med Chem, 2022).

Legend:
[1] = Inhibition of human OAT2 tv.1 variant expressed in HEK293 cells assessed as inhibition of [3H]cGMP uptake by scintillation analysis; format: ADME, cell-based; conditions: HEK293, 3 h
[2] = Dissociation constant, pKa of the compound; format: physicochemical
[3] = Lipophilicity, log D of the compound; conditions: octanol/water

Row | Structure (SMILES) | IC50 [1] | pKa [2] | logD [3]
1 | CCCc1nc2c(C)cc(-c3nc4ccccc4n3C)cc2n1Cc1ccc(-c2ccccc2C(=O)O)cc1 | 13.7 µM | 3.6 | 2.35
2 | CNS(=O)(=O)Cc1ccc2[nH]cc(CCN(C)C)c2c1 |  | 8.7 | -1.08
3 | CCCCc1nc(C)c(CC(=S)N(C)C)c(=O)n1Cc1ccc(-c2ccccc2-c2nnn[nH]2)cc1 | 15.7 µM | 4.2 | 0.91
4 | O=C(O)CSc1nnc(Br)n1-c1ccc(C2CC2)c2ccccc12 | 11.5 µM | 3.4 | 0.46
5 | O=C1NC(=O)N(/N=C/c2ccc(-c3ccc([N+](=O)[O-])cc3)o2)C1O (stereo not given) | 16 µM |  | 
6 | C[C@H]1CN(C[C@H](Cc2ccccc2)C(=O)NCC(=O)O)CC[C@@]1(C)c1cccc(O)c1 [ALVIMOPAN] |  | 3.2 | 0.65
7 | CNn1cc(C(=O)O)c(=O)c2cc(F)c(N3CCN(C)CC3)cc21 [AMIFLOXACIN] |  | 6.3 | -0.08
8 | CNCC[C@@H](Oc1ccccc1C)c1ccccc1 [ATOMOXETINE] |  | 9.6 | 0.57
9 | O=C1CN(/N=C/c2ccc(-c3ccc([N+](=O)[O-])cc3)o2)C(=O)N1 [DANTROLENE] | 16 µM |  | 
10 | CCN(CC)C(=O)/C(C#N)=C/c1cc(O)c(O)c([N+](=O)[O-])c1 [ENTACAPONE] | 1.9 µM | 4.2 | 0.23
11 | COc1ccc(Cl)cc1C(=O)NCCc1ccc(S(=O)(=O)NC(=O)NC2CCCCC2)cc1 [GLYBURIDE] | 14.9 µM |  | 2.15
12 | CN(C)CCCN1c2ccccc2CCc2ccccc21 [IMIPRAMINE] |  | 9 | 
13 | COc1ccc2c(c1)c(CC(=O)O)c(C)n2C(=O)c1ccc(Cl)cc1 [INDOMETHACIN] | 2.9 µM |  | 1.03
14 | N=C(N)NCCCNC(=O)[C@@H]1CCCCN1C(=O)[C@@H](CC1CCCCC1)NCC(=O)O [INOGATRAN] |  | 2.1 | 0.04
15 | CC(C(=O)O)c1cccc(C(=O)c2ccccc2)c1 (stereo not given) [KETOPROFEN] | 14.9 µM |  | 0.21
16 | COc1cccc(OC)c1C(=O)N[C@@H]1C(=O)N2[C@@H]1SC(C)(C)[C@@H]2C(=O)O [METHICILLIN] |  | 2.8 | -1.88
17 | CN(C)C(=O)CCSC(SCCC(=O)O)c1cccc(/C=C/c2ccc3ccc(Cl)cc3n2)c1 (stereo not given) [MK-571] | 9.5 µM | 4.6 | 2.55
18 | CC(C)(C)NCC(O)COc1cccc2c1CC(O)C(O)C2 (stereo not given) [NADOLOL] |  | 9.3 | -1.19
19 | COC(=O)C1=C(C)NC(C)=C(C(=O)OC)C1c1ccccc1[N+](=O)[O-] [NIFEDIPINE] | 6.5 µM |  | 
20 | Nc1nc2[nH]cc(CCc3ccc(C(=O)N[C@@H](CCC(=O)O)C(=O)O)cc3)c2c(=O)[nH]1 [PEMETREXED] |  | 3.5 | -1.93
21 | Cc1noc(NS(=O)(=O)c2ccc(N)cc2)c1C [SULFISOXAZOLE] |  | 4.8 | -1.17
22 | Cc1ccc(O)c([C@H](CCN(C(C)C)C(C)C)c2ccccc2)c1 [TOLTERODINE] |  | 9.2 | 1.82
23 | N[C@@H]1[C@H]2CN(c3nc4c(cc3F)c(=O)c(C(=O)O)cn4-c3ccc(F)cc3F)C[C@@H]12 [TROVAFLOXACIN] | 11.5 µM | 6 | 0.42
24 | CN(C)CCc1c[nH]c2ccc(C[C@H]3COC(=O)N3)cc12 [ZOLMITRIPTAN] |  | 8.7 | -0.63
